The text below walks through data of patent US10968184B2, “Pyrimidine prodrugs for the treatment of viral infections and further diseases” (Janssen Sciences Ireland Unlimited Company, priority 2016, dated 2021).

Data set [1] can be described thus: Pharmacokinetics in rat after oral administration. The settings on record: SD rats, aqueous solution, 5 mg/kg eq dose, prodrug in plasma; for AUC(0-t): read-out: AUC(0-last) prodrug. The data set is classed as in vivo. As for the experimental part: Pharmacokinetics in rat. Prodrugs were administered orally to SD rats using aqueous solution at 5 mg/kg eq dose. Plasma samples were collected at different time points and the concentration of parent and prodrug was analyzed using LC-MS/MS. PK parameters were calculated using Phoenix WinNonlin 6.3. Cmax (ng/mL) and AUC(0-last) (ng·h/mL) were determined for both prodrug and parent.

Data set [2] can be described thus: in vitro. The settings on record: human, hepatocytes.
The nature of data set [3]: in vitro. The settings on record: rat, liver microsomes.
Data set [4] is described as follows: in vitro. The settings on record: rat, plasma.
Data set [5] in a line: in vitro. The settings on record: human, liver microsomes.
A short description of data set [6]: in vitro. The settings on record: rat, hepatocytes.
Data set [7] can be described thus: in vitro. The settings on record: simulated gi fluid.
The nature of data set [8]: in vitro. The settings on record: simulated gi fluid. The source holds these as a separate data set.
Data set [9] concerns P-glycoprotein (human MDR1). Description: in vitro. The settings on record: dog, MDCK-MDR1.
Data set [10] can be described thus: in vitro. The settings on record: human, plasma.

For the compound `CCCC[C@H](CO)Nc1nc(N(C)C)ncc1OC` [Compound 5, (R)-2-((2-(dimethylamino)-5-methoxypyrimidin-4-yl)amino)hexan-1-ol], the melting point amounted to 86.1 °C. For the same compound, in data set [1], the Cmax came out at 88 ng/mL and the AUC(0-t) stood at 144 ng·h/mL. For the same compound, the hepatocyte CLint at 1 μM in the data set “in vitro [2]” was found to be 80 µL/min/1e6 cells. The compound also gave an intrinsic metabolic clearance (microsomal CLint) at 1 μM in “in vitro [3]” of 141 µL/min/mg. Besides, the half-life at 1 μM in “in vitro [4]” is more than 30 h. This compound registered a microsomal CLint at 1 μM in “in vitro [5]” of 14 µL/min/mg. The compound also displayed a hepatocyte CLint at 1 μM in “in vitro [6]” of 280 µL/min/1e6 cells. Besides, the half-life in “in vitro [7]” was more than 6 h. The compound further displayed a half-life in “in vitro [8]” of more than 6 h. For the same compound, in [9], the Papp A→B turned out to be 20 ×10⁻⁶ cm/s and the efflux ratio worked out at 3.2. Also, the half-life at 1 μM in the data set “in vitro [10]” was more than 30 h.

`CCCC[C@H](CO)Nc1nc(NC)ncc1OC` [Compound 6]: the Cmax in data set [1] turned out to be 129 ng/mL. In addition, the AUC(0-t) in data set [1] amounted to 206 ng·h/mL. Also, the figures for the hepatocyte CLint at 1 μM in the data set “in vitro [2]” and in the data set “in vitro [6]” were 33 µL/min/1e6 cells and 120 µL/min/1e6 cells, respectively. Moreover, the microsomal CLint at 1 μM in the data set “in vitro [3]” was determined as 25 µL/min/mg; in the data set “in vitro [5]” it was 18 µL/min/mg. Besides, the half-life at 1 μM in “in vitro [4]” and in the data set “in vitro [10]” was more than 30 h each time. The half-life in the data set “in vitro [7]” and in the data set “in vitro [8]” was more than 6 h throughout. The compound also displayed a Papp A→B in data set [9] of 6.8 ×10⁻⁶ cm/s. For the same compound, the efflux ratio in data set [9] was 10.

As to `CCCC[C@H](CO)Nc1nc(NC2CCCO2)ncc1OC` (stereo partly drawn) [Compound 9, (2R)-2-((5-methoxy-2-((tetrahydrofuran-2-yl)amino)pyrimidin-4-yl)-amino)hexan-1-ol], the intrinsic metabolic clearance (microsomal CLint) at 1 μM in “in vitro [3]” was 27 µL/min/mg; in “in vitro [5]” it was 115 µL/min/mg. For the same compound, the half-life at 1 μM in “in vitro [4]” and in “in vitro [10]” was less than 0.4 h each time.

`CCCC[C@H](CO)Nc1nc(NC2CCCCO2)ncc1OC` (stereo partly drawn) [Compound 10, (2R)-2-((5-methoxy-2-((tetrahydro-2H-pyran-2-yl)amino)pyrimidin-4-yl)-amino)hexan-1-ol]: the microsomal CLint at 1 μM in the data set “in vitro [3]” was more than 347 µL/min/mg; in “in vitro [5]”, 88 to 90 µL/min/mg. Besides, the half-life at 1 μM in “in vitro [4]” and in the data set “in vitro [10]” was 1.4 h each time. Moreover, the Papp A→B in data set [9] came to 1.8 ×10⁻⁶ cm/s. Besides, in data set [9], the efflux ratio was determined as 33.
